Laboratory results as given in patent publication US20240116962A1, “PYRIDINE-2-AMINE DERIVATIVE AND PHARMACEUTICAL COMPOSITION AND USE THEREOF” (TSINGHUA UNIVERSITY, priority 2020, published 2024).

Legend:
hTLR7 = biological target: T1, hTLR7 (Homo sapiens, UniProt Q9NYK1); assay: EC50 assay for small molecule agonists, HEK-Blue hTLR7 cells, SEAP readout; assay type: cell-based; details: agonist activity, nd = EC50 larger than 25 μM
T1 construct: host or cells: HEK-Blue hTLR7 (HEK293-derived reporter cells with SEAP read-out)
T1 sequence (Q9NYK1 27-1049): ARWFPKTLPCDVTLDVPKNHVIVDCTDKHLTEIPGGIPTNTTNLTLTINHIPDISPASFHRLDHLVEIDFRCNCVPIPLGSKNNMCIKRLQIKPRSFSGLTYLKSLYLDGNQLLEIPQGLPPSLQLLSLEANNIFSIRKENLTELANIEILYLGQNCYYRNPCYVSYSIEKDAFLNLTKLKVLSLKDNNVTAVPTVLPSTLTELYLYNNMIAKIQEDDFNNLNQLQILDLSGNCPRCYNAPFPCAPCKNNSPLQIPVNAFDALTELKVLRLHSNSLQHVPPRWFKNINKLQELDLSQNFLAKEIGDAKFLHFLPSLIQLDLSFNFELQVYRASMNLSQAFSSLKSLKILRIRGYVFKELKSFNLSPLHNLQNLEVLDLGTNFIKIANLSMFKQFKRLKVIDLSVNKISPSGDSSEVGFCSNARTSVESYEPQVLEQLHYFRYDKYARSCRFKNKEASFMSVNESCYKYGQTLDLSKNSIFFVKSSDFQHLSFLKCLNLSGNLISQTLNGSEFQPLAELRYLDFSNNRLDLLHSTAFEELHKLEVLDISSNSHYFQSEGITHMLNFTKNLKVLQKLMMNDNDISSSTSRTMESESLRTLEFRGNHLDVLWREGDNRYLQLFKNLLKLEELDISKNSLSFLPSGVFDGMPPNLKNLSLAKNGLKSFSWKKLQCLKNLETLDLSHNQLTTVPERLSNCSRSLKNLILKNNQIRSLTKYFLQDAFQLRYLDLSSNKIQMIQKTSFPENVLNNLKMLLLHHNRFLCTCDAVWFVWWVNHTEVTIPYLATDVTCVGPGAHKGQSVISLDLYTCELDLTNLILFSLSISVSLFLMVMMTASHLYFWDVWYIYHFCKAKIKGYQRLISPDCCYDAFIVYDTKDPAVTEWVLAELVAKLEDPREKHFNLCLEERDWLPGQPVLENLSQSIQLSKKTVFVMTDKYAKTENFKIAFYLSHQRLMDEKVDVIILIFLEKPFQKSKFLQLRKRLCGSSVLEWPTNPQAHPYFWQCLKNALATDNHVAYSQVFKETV
Protocol: (§1) Reagents used for cell culture and detection for HEK-Blue™ hTLR7, HEK-Blue™ hTLR8 and control HEK-Blue Nu112k were as follows: DMEM (4.5 g/L glucose), bovine serum FBS, streptomycin ([…]), penicillin (50 U/mL), Blasticidin (10 mg/mL), Zeocin™ (10 mg/mL), Normocin (50 mg/mL), and HEK-Blue™ Detection. Basal medium was as follows: DMEM +10% FBS+streptomycin+penicillin+Normocin ([…]); selective medium for resistance genes was as follows: DMEM+10% FBS+streptomycin+penicillin+Normocin (1001 μg/mL)+Blasticidin (1001 μg/mL)+Zeocin™ (1001 μg/mL).
(§2) Cell preparation: HEK-Blue™ hTLR7 and HEK-Blue™ hTLR8 cell lines were purchased from Invivogen. The cells frozen in liquid nitrogen were taken, quickly placed in a water bath at 37° C., shaken occasionally, and completely melted within 1 min. The cells were transferred to 15 mL of pre-heated basal medium and resuspended; centrifuged at 1,000 r/min for 5 min, supernatant discarded; resuspended with 1 mL of basal medium, transferred to a T25 culture flask, supplemented to 5 mL with the medium, and incubated in an incubator at 37° C.; after stable passage twice, and subjected to selective antibiotic screening: HEK-Blue™ hTLR7 or HEK-Blue™ hTLR8: 100 μg/mL Zeocin+Blasticidin (30 μg/mL), HEK-Blue Nu112-k: 100 μg/mL Zeocin. The fluid was changed 3 times a week. When the number of cells reached 70%-80%, PBS was added, and the cells were exfoliated by gently pipetting.
(§3) Activity assay steps: (1) adding a test sample to a 96-well plate at 20 μL/well (triplicate wells were set); (2) adding 20 μL of positive control (e.g., R848), and adding 20 μL of negative control (e.g., ddH2O); (3) removing a T75 culture flask from the incubator, discarding the medium, adding 5-10 mL of pre-heated PBS, and gently pipetting the cells; adding 2-5 mL of PBS to the culture flask, incubating the culture flask in the incubator for 1-2 min, and then gently pipetting the cells to make them exfoliated; (4) mixing the mixture well, and counting the cells, without centrifugation; resuspending the cells with HEK-Blue™ assay solution and adjusting the cell number, taking care not to incubate for a long time to avoid too deep background or false positive. HEK-Blue hTLR cell number was about 2.2×10^5/mL, 180 μL/well (about 40000 cells), and HEK-Blue Nu112-k cell number was about 2.8×10^5/mL, 180 μL/well (about 50000 cells). (5) incubating the cells in the incubator at 37° C. for 6-16 h, and detecting at 620-655 nm for SEAP readings.
(§4) Effect %=(mean OD of the administration group−mean OD of the H2O group at each concentration)/(mean ODmax of the positive drug group−mean OD of the H2O group)×100. EC50 was calculated by fitting Lg [concentration]-effect curves using GraphPad Prism5 software.
(§5) Experimental results: the concentration for 50% of maximal effect (EC50) refers to a corresponding concentration of small molecules that can cause 50% of the maximal agonistic effect. […] EC50 represents a potency for agonizing the TLR8 receptor, with smaller values indicating better efficacy. […] In the following table, the unit of the agonist activity is nanomole, unless otherwise specified.

hTLR8 = biological target: T2, hTLR8 (Homo sapiens, UniProt Q9NR97); assay: EC50 assay for small molecule agonists, HEK-Blue hTLR8 cells, SEAP readout; assay type: cell-based; details: agonist activity, read-out: hTLR8(EC50)
T2 construct: host or cells: HEK-Blue hTLR8 (HEK293-derived reporter cells with SEAP read-out)
T2 sequence (Q9NR97 27-1041): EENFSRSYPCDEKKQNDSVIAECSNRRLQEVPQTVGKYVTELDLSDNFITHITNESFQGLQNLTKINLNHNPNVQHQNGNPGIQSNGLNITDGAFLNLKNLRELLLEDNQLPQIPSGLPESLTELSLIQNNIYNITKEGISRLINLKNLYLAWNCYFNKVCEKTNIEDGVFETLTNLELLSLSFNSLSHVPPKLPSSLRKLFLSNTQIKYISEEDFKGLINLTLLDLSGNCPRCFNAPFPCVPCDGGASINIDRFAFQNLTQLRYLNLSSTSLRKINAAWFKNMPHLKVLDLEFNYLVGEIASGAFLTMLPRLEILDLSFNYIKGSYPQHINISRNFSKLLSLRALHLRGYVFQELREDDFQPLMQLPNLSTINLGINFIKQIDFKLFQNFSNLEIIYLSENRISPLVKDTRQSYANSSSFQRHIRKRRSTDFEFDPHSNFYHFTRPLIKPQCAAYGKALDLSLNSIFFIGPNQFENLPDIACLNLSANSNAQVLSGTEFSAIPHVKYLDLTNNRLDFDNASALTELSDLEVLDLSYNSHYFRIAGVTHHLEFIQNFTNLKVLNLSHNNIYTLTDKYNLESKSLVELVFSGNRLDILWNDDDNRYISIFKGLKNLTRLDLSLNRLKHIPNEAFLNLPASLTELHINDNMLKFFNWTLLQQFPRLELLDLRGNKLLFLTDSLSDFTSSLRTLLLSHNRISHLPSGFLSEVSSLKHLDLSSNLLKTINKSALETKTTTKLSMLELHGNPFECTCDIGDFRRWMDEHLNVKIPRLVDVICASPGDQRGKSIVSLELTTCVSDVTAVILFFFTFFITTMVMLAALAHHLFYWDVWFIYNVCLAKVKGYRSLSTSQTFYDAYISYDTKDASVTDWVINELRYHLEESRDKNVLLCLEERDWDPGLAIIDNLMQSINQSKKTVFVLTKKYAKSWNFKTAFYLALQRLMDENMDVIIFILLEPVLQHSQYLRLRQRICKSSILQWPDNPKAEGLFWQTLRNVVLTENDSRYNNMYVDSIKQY
Protocol: as §1, §2, §3, §4, §5

Structure (SMILES)	EC50 (hTLR7)	EC50 (hTLR8)
CCCCCc1cc(Cc2ccc(CN3CCNCC3)cc2)c(C)nc1N [Compound N10]	> 25 µM	0.134 µM
CCCCCc1cc(Cc2ccc(C(=O)N(C)C)cc2)c(C)nc1N [Compound N38]	> 25 µM	> 4 µM
CCCCCc1cc(Cc2ccc(CN3CCC3)cc2)c(C)nc1N [Compound N17]	> 25 µM	0.121 µM
CCCCCc1cc(Cc2ccc(CN3CCOCC3)cc2O)c(C)nc1N [Compound N48]	> 25 µM	> 4 µM
CCCCCc1cc(Cc2ccc(CN3CC(O)C3)cc2)c(C)nc1N [Compound N21]	> 25 µM	0.117 µM
CCCCCc1cc(Cc2ccc(C(=O)N3CCN(C)CC3)cc2)c(C)nc1N [Compound N41]	> 25 µM	> 4 µM
CCCCCc1cc(Cc2ccc(CN3CCN(C)CC3)cc2)c(C)nc1N [Compound N11]	> 25 µM	0.151 µM

The next lines start with the values.

EC50 (hTLR7)	EC50 (hTLR8)	Structure (SMILES)
> 25 µM	0.13 µM	CCCCCc1cc(Cc2ccc(CNC3CC3)cc2)c(C)nc1N [Compound N20]
> 25 µM	1.58 µM	CCCCCc1cc2nc(Cc3ccc(CN4CCOCC4)cc3)ccc2nc1N [Compound N3]
> 25 µM	3 µM	CCCCCc1cc(Cc2ccc(CN(C)CC(=O)OC)cc2)c(C)nc1N [Compound N13]
> 25 µM	0.058 µM	CCCCCc1cc(Cc2ccc(CN(C)C)cc2)c(C)nc1N [Compound N4]
> 25 µM	> 4 µM	CCCCCc1cc(Cc2ccc(CN(C)CCOCCOCCC(F)(F)P(=O)(O)O)cc2)c(C)nc1N [Compound N26]
> 25 µM	0.124 µM	CCCCCc1cc(Cc2ccc(CN3CC[C@H](O)C3)cc2)c(C)nc1N [Compound N18]
> 25 µM	0.102 µM	CCCCCc1cc(Cc2ccc(CN3CCCC3)cc2OC)c(C)nc1N [Compound N43]
> 25 µM	0.113 µM	CCCCCc1cc(Cc2ccc(CN3CC4(COC4)C3)cc2F)c(C)nc1N [Compound N24]
> 25 µM	> 4 µM	CCCCCc1cc(Cc2ccc(CN(C)CC(=O)O)cc2)c(C)nc1N [Compound N14]
> 25 µM	> 4 µM	CCCCCc1cc(Cc2ccc(CN(C)CCC(=O)O)cc2)c(C)nc1N [Compound N16]
